Source: paper PMC4444023 (PLoS ONE, 2015)
“Also recorded” adds a separate entry of the source.

Tests used:
[1] = biological target: T1, rat nSMase2 (Rattus norvegicus, UniProt O35049); assay: Fluorescence assay with rat brain homogenate membrane fraction; format: biochemical; conditions: rat brain homogenates
T1 construct: A membrane protein-enriched fraction of rat brain homogenate was used as the source for nSMase2; from tissue; host or cells: rat brain homogenate, membrane protein-enriched fraction
T1 sequence (O35049 1-655): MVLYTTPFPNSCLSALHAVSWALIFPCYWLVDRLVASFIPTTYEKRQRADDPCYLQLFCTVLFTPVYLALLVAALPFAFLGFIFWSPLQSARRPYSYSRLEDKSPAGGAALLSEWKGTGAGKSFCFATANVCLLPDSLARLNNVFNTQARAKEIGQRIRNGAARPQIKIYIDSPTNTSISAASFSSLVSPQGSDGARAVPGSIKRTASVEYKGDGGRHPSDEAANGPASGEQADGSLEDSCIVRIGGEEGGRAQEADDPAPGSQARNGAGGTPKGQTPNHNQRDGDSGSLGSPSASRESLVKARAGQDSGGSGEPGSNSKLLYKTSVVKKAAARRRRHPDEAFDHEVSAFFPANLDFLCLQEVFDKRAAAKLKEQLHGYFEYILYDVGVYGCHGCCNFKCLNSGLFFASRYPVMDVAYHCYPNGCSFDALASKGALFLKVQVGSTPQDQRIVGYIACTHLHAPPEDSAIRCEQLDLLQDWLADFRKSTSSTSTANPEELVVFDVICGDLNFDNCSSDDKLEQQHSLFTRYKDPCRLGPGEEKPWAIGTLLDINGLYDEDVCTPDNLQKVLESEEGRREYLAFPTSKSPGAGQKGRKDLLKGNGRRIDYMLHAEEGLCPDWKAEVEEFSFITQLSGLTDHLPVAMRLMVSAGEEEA

[2] = biological target: B. cereus nSMase (Bacillus cereus, UniProt P11889); assay: Inhibition of bacterial nSMase (not shown); format: biochemical
B. cereus nSMase, sequence (P11889 28-333): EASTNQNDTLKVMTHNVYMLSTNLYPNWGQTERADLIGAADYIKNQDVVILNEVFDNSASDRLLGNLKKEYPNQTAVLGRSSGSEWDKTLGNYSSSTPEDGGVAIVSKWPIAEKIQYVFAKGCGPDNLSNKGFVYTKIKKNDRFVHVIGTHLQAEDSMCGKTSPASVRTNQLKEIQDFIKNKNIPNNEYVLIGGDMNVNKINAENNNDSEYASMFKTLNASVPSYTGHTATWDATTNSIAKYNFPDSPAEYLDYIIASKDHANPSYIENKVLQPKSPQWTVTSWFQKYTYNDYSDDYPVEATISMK

[3] = tested on: rat primary cortical neurons; assay: Lipid extraction and ceramide measurements (LC-MS/MS); format: cell-based; conditions: rat primary neurons, TNF-α
Experimental: Primary cortical neurons were prepared from embryonic day 18 Sprague-Dawley rats following previously described methods. […] A crude lipid extract from cortical neurons was obtained using a modified Bligh and Dyer procedure. Ceramide C12:0 (Avanti Polar Lipids) was included as an internal standard. The organic layers were dried in a nitrogen evaporator (Organomation Associates Inc.) and stored at -80°C. Dried organic layers were resuspended in methanol just prior to analysis. The detection and quantitation of individual ceramide species was performed on a high-performance liquid chromatography (HPLC) coupled electrospray ionization triple quadrupole mass spectrometer (API3000, AB Sciex Inc.) using settings similar to those described in previous studies. Samples were handled by a CTC PAL autosampler (LEAP Technologies Inc.) and injected into an HPLC (PerkinElmer) equipped with a reverse phase C18 column (Phenomex). […] The eluted sample was injected into the electrospray ionization source and detection of each ceramide species was conducted by multiple reaction monitoring. Spectral analysis was conducted using MultiQuant (AB Sciex Inc.), individually validated and normalized to the internal standard. Final data for each ceramide species in counts per second was expressed as the ratio of analyte/internal standard.

[4] = tested on: rat primary hippocampal neurons; assay: Dendrite length (MAP2 imaging); format: cell-based; conditions: for dendrite length, Mean: in µm (unit assumed)
Experimental: Quantification of neuronal morphology was done in primary hippocampal neurons plated in PEI-coated ultra-thin and optically clear flat bottom 96-well plates (Corning). […] Neurons were then fixed with 4% paraformaldehyde, and permeabilized with 0.1% Triton X-100 in phosphate-buffered saline (PBS-T) for 20 min at room temperature. Blocking was done for 1 h with 5% normal goat serum solution, then incubation with anti-MAP2 antibody (1:500, Sigma) was done, followed by three washes with PBS-T and 2 h incubation with Alexa 595 secondary antibody (1:500, Life Technologies). Dendrites were imaged with a 20X objective using a Zeiss Axio Observer Z1 microscope equipped with an Orca ER CCD camera (Hamamatsu Inc). A 6x6 image was obtained from each culture well, and a montage was created using Neurolucida imaging software (mbf Biosecience). The effects of the experimental treatments on dendrite length were determined and the results presented are the average of 5–6 individual experiments. Statistical significance was determined by one-way ANOVA analysis.

[5] = biological target: aSMase; parameters: method as in earlier work; conditions: ref personal communication with Drs. Marc Ferrer and Wei Zheng, NCATS; cited from earlier work
[6] = tested on: SIRT1; conditions: NAD-dependent deacetylase activity; cited from earlier work
[7] = tested on: Burkitt lymphoma xenografts; parameters: method as in PMID 16618762; conditions: mice, cited from earlier work
[8] = tested on: BCL6-expressing Burkitt lymphoma cell lines; parameters: method as in PMID 16618762; conditions: cited from earlier work
[9] = biological target: T2, human nSMase2 (Homo sapiens, UniProt Q9NY59); assay: Time dependence study of cambinol inhibitory activity; format: biochemical; parameters: Full length human nSMase2 cDNA with a C-terminal Flag tag; host or cells: HEK293, stably transfected; crude cell lysate used as enzyme; conditions: pre-incubation up to 2 h
T2 sequence (Q9NY59 1-655): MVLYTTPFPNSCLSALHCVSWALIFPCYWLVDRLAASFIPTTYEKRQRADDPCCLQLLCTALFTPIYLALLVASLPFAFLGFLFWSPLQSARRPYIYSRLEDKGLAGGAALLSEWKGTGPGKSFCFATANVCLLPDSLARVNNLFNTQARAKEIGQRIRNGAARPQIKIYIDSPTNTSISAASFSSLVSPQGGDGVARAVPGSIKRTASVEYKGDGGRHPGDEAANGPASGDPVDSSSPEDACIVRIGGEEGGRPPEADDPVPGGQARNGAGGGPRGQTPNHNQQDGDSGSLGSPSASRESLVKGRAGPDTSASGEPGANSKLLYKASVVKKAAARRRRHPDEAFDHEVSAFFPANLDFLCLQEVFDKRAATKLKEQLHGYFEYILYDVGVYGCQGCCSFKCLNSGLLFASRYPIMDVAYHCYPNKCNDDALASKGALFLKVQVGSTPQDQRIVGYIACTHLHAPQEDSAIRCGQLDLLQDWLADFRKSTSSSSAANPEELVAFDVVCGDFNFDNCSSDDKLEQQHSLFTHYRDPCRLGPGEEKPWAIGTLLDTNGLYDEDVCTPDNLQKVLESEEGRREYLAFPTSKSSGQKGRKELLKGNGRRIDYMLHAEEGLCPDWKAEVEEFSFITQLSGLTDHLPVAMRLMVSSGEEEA
Experimental: ^bCambinol IC50 values were determined from 8-points dose response curves run in duplicate.

## O=c1[nH]c(=S)[nH]c(-c2ccccc2)c1Cc1c(O)ccc2ccccc12 [Cambinol, cambinol]
[1]
  IC50: 6 µM
[2]
  IC50: 5 µM
[3]
  effect on cytokine-induced increase of ceramide (words): decreased
[3]; listed as cambinol
  effect on cytokine-induced increase of ceramide (words): dose dependently block; also recorded: blocked
[4]; 100 ng/ml TNFα 18 h, 0.1 µM Cambinol
  dendrite length, Mean: 9111.111
[4]; 100 ng/ml TNFα 18 h, 0.3 µM Cambinol
  dendrite length, Mean: 11450
[4]; 100 ng/ml TNFα 18 h, 1 µM Cambinol
  dendrite length, Mean: 13799
[4]; 100 ng/ml TNFα 18 h, 3 µM Cambinol
  dendrite length, Mean: 14262.5
[4]; 100 ng/ml TNFα 18 h, 10 µM Cambinol
  dendrite length, Mean: 18867
[4]; 100 ng/ml TNFα 18 h, 30 µM Cambinol
  dendrite length, Mean: 16000
[4]; No TNFα, 30 µM Cambinol
  dendrite length, Mean: 15151.25
[4]; decrease in dendritic length
  effect on TNFα-induced dendrite damage: prevented; also recorded: protected
[5]
  IC50: > 10 µM
[6]
  IC50: 56 µM
[7]; doses as high as 100 mg/kg intravenously
  tolerability: well tolerated
[7]
  anti-cancer efficacy: effective
[8]
  apoptosis: induced apoptosis
[9]
  time dependence of inhibition: did not change; also recorded: independent of pre-incubation time
